Measured values reported in patent US10821079B2, “PKC activators and combinations thereof” (Cognitive Research Enterprises, Inc., priority 2011, dated 2020).

Key:
[1] = test system: primary rat hippocampal neurons; test: Neuroprotection against ASPD induced toxicity, MTT, primary neurons; format: cell-based
Experimental: Viability of cells was measured by MTT assay. MTT (3-(4,5-Dimethylthiazol-2-yl)-2,5-diphenyltetrazolium bromide) is a tetrazolium salt that is cleaved to formazan by the succinate dehydrogenase, which is only active in viable cells. After solubilization of the formazan, the amount of dye can be quantified with a microplate reader at 570 nm along with a reference of 630 nm. For MTT assay, 5×104 primary rat hippocampal neurons from 18-day-old embryonic Sprague-Dawley rat brains were plated on each well of 24-well plates coated with poly-D-lysine. After treatment, the cells were washed with 1×PBS and were incubated with 200 μl of 1 mg/ml MTT solution (Sigma, USA) at 37° C. for 2 hr. Then the MTT-solution was removed and the cells were lysed with 200 μl isopropanol containing 0.04 M HCl and 160 mM NaOH for 10 min. Finally, the reading was done at 570 nm and 630 nm. All the samples were done in triplicates and the data was represented as the percentage of control.
All studies used 50 nM ASPDs. The viability of the cells were measured by the MTT assay.

[2] = molecular target: T1, PKC-ε-RACK1 (Homo sapiens, UniProt Q02156); test: PKC-ε interaction with RACK1 (confocal colocalization, coimmunoprecipitation); format: cell-based; conditions: 0.27 nM
T1 construct: host or cells: SH-SY5Y neuroblastoma cells
T1 sequence (Q02156 whole entry): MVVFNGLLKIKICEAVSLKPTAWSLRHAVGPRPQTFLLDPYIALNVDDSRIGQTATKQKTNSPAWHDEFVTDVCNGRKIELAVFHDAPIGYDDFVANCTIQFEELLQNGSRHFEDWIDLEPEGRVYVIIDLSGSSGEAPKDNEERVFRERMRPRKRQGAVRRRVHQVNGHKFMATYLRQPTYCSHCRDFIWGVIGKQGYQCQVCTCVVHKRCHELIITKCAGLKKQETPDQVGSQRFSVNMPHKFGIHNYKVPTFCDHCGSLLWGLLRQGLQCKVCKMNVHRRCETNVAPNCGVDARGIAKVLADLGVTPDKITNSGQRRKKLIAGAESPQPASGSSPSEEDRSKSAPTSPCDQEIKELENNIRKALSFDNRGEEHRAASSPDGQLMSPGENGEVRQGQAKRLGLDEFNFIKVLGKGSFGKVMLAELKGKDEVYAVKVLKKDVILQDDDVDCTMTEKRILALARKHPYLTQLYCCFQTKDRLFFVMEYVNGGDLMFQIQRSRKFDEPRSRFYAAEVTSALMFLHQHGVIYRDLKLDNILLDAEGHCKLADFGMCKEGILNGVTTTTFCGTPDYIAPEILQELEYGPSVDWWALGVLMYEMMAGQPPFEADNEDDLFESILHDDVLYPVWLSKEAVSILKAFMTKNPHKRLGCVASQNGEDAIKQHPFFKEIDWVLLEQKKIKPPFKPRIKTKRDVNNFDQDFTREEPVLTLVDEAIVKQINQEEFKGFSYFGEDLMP
Experimental: Cells were grown in two chambered slides (Nunc, USA) at low density. For immunofluorescence staining, the cells were washed with PBS (pH 7.4) and fixed with 4% paraformaldehyde for 4 min. Following fixation, the cells were blocked and permeabilized with 5% serum and 0.3% Triton X 100 in 1×PBS for 30 min. The cells were washed three times with 1×PBS and incubated with primary antibodies for 1 hr at 1:100 dilution. The incubation slides were then washed again three times in 1×PBS and were incubated with the FITC anti-rabbit IgG and Rhodamine anti-mouse IgG for 1 hr at 1:400 dilution. The cells were further washed and treated with DAPI (4′,6-diamidino-2′-phenylindole, dihydrochloride) (Thermo Scientific, USA) to stain the nucleus. Finally, the slides were washed and mounted in Pro Long Gold antifade mounting solution (Invitrogen, USA) and were viewed under the LSM 710 Meta confocal microscope (Zeiss) at 350 nm, 490 nm, and 540 nm excitation and 470 nm, 525 nm, and 625 nm emission for DAPI, FITC, and Rhodamine respectively. Six individual fields at 63× oil lens magnification were analyzed for the mean fluorescence intensity (MFI) in each channel. The co-localization correlation generated by the ZEN software (Zeiss).
Coimmunoprecipitation was done following protocol described Besson et al. with slight modification. See Besson et al. (2002) J Biol Chem 277, 22073-22084. […] (DSP) for 30 min at room temperature to crosslink the intracellular proteins following the manufacturer's protocol. After crosslinking the proteins, the cells were lysed in the homogenizing buffer mentioned above. For immunoprecipitation, 500 μg of protein was incubated with 4 μg of appropriate antibody and 25 μl of Protein-A Sepharose beads (Invitrogen, USA) for 3 hr at 4° C. Immunoprecipitates were rinsed three times in the homogenizing buffer and were subjected to Western blot as described earlier.
Next, cells were prepared according to the coimmunoprecipitation methods discussed above.

[3] = test system: synaptosomes; test: Western blot of synaptosomes from treated cells; format: cell-based, human; conditions: RA 10 μM, Bryostatin-1 0.27 nM, 72 hr
Experimental: Synaptosomes from undifferentiated and differentiated cells were prepared following the method described earlier (29). See Nagy et al. (1984) J Neurochem 43, 1114-1123. Briefly, the cells were washes in 1×PBS and homogenized in 10 volumes of buffer (“buffer1”) containing 0.32 M sucrose, 5 mM HEPES pH 7.2, and 0.1 mM EDTA in a Teflon homogenizer. The homogenate was centrifuged at 1000×g for 10 min to remove the nuclear fraction. The supernatant obtained was again spun at 12000×g for 20 min at 4° C. The pellet thus obtained was resuspended in 3 volumes of buffer1 and was layered on to the 16%/10%/8.5% Percoll gradient prepared from the stock isoosmotic percoll containing 9 parts 100% percoll, and 1 part 2.5 M sucrose. The preparation was centrifuged at 15000×g for 20 min at 4° C. Synaptosomes collected from the layer between 10% and 16% gradient was washed with 1×PBS and was centrifuged at 20000×g for 15 min. The purified synaptosomes were homogenized in homogenizing buffer and were subjected to western blot as described before.
Western blot analysis was performed after 72 hr.

[4] = rats; cited from earlier work
[5] = test system: GSK-3β; test: Phospho GSK-3β (Ser-9) Western Blot in ASPD treated primary neurons; format: cell-based, rat; conditions: 50 nM ASPD + 100 nM DCPLA-ME
Text: Phospho GSK-3β expression was normalized against total GSK-3β expression. […] Data are represented as mean±SEM. (Student's t test *. p<0.05; and **, p<0.005 n=3).
Since GSK-3β is a key enzyme in the production of hyperphosphorylated tau protein, and phosphorylation of the Ser-9 residue causes GSK-3β inhibition, increasing phosphorylation of GSK-3β at Ser-9 by PKC could also enhance the protective effect of DCPLA-ME.

CCC/C=C/C=C/C(=O)O[C@H]1/C(=C/C(=O)OC)C[C@H]2C[C@H]([C@@H](C)O)OC(=O)C[C@H](O)C[C@@H]3C[C@H](OC(C)=O)C(C)(C)C(O)(C[C@@H]4C/C(=C/C(=O)OC)C[C@H](/C=C/C(C)(C)[C@]1(O)O2)O4)O3 [Bryostatin-1]
viability (Example 25) ([1]; 50 nM ASPDs alone (ASPD) or with the treatment named, 24 hr): 71.38%±2.34
viability at 0.00027 µM ([1]; Rattus norvegicus, Hippocampal neuron, 20 h, read-out: viability restored in ASPD-treated primary neurons): 73.2 ± 3.6%
PKC-ε-RACK1 interaction by RACK1 immunoprecipitation (in words) [2]: increased significantly at 5, 15, and 30 min
colocalization correlation R ([2]; 5 min): 0.71
colocalization correlation R ([2]; 15 min): 0.72
increase in PKC-ε level in synaptosomes [3]: 2 fold
acute LD50 [4]: 0.068 mg/kg

CCCCCC1CC1CC1CC1CCCCCCCC(=O)OC (centres unmarked) [DCPLA-ME, methyl 8-(2-((2-pentylcyclopropyl)methyl)cyclopropyl)octanoate]
phosphorylation of Ser-9 of GSK-3β (in words) [5]: restored phosphorylation of the Ser-9 residue of GSK-3β to normal levels
